{
  "source": "patent US10040836B2",
  "about": "“Peptides for the treatment of neurodegenerative diseases” (Ramot at Tel-Aviv University Ltd., priority 2012, dated 2018)",
  "key": {"caspase-6": {"target": "T1, caspase-6 (Homo sapiens, UniProt P55212)", "T1 construct": "purchased Enzo life-science", "T1 sequence (P55212 24-293)": "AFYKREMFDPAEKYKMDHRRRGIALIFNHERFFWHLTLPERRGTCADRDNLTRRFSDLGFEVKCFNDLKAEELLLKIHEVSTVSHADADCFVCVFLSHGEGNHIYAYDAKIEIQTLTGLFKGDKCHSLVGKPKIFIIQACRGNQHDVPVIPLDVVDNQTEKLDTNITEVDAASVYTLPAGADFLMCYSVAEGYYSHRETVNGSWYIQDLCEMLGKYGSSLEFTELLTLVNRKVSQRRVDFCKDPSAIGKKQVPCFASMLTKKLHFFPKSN", "experiment": "Purified caspase-6 activity assay (Caspase-Glo 6, Z-VEID-aminoluciferin)", "format": "biochemical", "protocol": "For determining ED11 caspase-6 inhibition ability, the Caspase-Glo® 6 assay (Promega) was carried out according to the manufacturer's instructions. Briefly, 0.1 U/ml Purified caspase-6 (Enzo life-science) was incubated with 0-12 μM Z-VEID-aminoluciferin in the presence of 10 μM ED11 or DMSO as vehicle control, and luminescent signal of released aminoluciferin (as RLU) was detected using Synergy HT multi-mode micro-plate reader (Bio-Tek). For Michaelis-Menten curve plotting, initial velocity was calculated using linear regression of the progress curve linear segment, adjusted to RLU/min. For caspase-3 inhibition capability, caspase-3 inhibitor drug detection kit (Abcam) was performed according to the manufacturer's instructions.\nEDII inhibits caspase-6 activity in a purified caspase-6 activity assay: To test the peptide ability to compete on caspase-6 activity, purified caspase-6 and Z-VEID-Aminoluciferin (Caspase-6 Glo™, Promega) were incubated with ED11, and bioluminescence signal was detected using SynergyHT microplate reader (FIGS. 1A-1D)."}, "SH-SY5Y cells": {"tested_on": "SH-SY5Y cells", "experiment": "Cell viability, proliferation and cell cycle in a basal state", "format": "cell-based, Human", "conditions": "up to 50 μM", "protocol": "SH-SY5Y cells were pre-incubated with 25 μM ED11 for one hour. Then, 10 μM 5-bromo-2-deoxyuridine (BrdU) was added for 2 hours. Medium was discarded and cells were fixed with 70% ethanol. DNA denaturation was conducted with 1.5 M HCl exposure for 30 minutes. FITC conjugated anti-BrdU antibody was used to mark incorporated BrdU. DNA staining was performed by using propidium iodide (PI). 15,000 cells per sample were read using FACS-Calibur flow cytometer, and cell-cycle analysis was conducted after doublet discrimination.\nTo induce exogenous glutamate toxicity, SH-SY5Y cell were incubated with the indicated concentrations of L-Glutamate (Sigma) for 16 hours, in the presence of 20 μM ED11 or vehicle control. For the In-cell caspase-6 activity assay, green FLICA caspase-6 assay (ImmunoChemistry Technologies) was conducted according to the manufacturer's instructions. Briefly, cells were lifted by trypsin and adjusted to 1.5×10^6 cells/ml. Cells were incubated with FAM-VEID-FMK for 1 hour in 37° C., washed with PBS and 5,000 cells per sample were analyzed by flow-cytometry. For apoptosis detection, Annexin V-FITC apoptosis detection assay (Abcam) was conducted according to the manufacturer's instructions. Briefly, 2×10^5 cells were incubated with Annexin V-FITC and PI for 5 minutes in R.T, and 15,000 cells per sample were analyzed by flow-cytometry. For viability assessment, medium was depleted and washed twice with PBS, and alamar-blue dye (AbD serotec, 1/10 in culture medium) was added to the cells, as instructed by the manufacturer. Fluorescence was monitored at 530-560 nm excitation wavelength and 590 nm emission wavelength, and viability was calculated as percentage of untreated control."}, "caspase-3": {"target": "T2, caspase-3 (Homo sapiens, UniProt P42574)", "T2 construct": "purchased Abcam", "T2 sequence (P42574 29-277)": "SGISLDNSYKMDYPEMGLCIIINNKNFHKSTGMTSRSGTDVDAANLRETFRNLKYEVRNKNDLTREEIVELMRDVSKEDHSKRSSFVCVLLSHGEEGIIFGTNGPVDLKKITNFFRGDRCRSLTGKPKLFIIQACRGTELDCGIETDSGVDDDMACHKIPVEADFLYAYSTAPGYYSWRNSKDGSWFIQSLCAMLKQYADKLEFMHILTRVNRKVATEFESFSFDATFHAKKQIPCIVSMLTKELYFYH", "experiment": "Fluorescent caspase-3 inhibition assay (caspase-3 inhibitor drug detection kit)", "format": "biochemical", "conditions": "purified caspase-3/caspase-6 assay, FIGS. 1E-1F"}},
  "note": "Where a SMILES comes first, the peptide text is derived from it. Where no end group is shown, it is not given here. The star is where a group is joined. Cbz = O=C(OCc1ccccc1)*; CH2F = FC*",
  "data": [
    {"compound": "modified peptide: ED11 with three of the amino acids in positions 17, 20 and 23 changed to Histidine (H) (GRKKRRQRRRPPQSSEHVLHGTHN)", "values": [
      {"measurement": "caspase-6 activity", "setting": "caspase-6; purified caspase-6, Z-VEID-aminoluciferin, 10 μM ED11", "value": "ineffective and didn't inhibit the caspase 6 activity"}
    ]},
    {"compound": "GRKKRRQRRRPPQSSEIVLDGTDN [ED11]", "values": [
      {"measurement": "cell proliferation (BrdU)", "setting": "SH-SY5Y cells", "value": "no effect"},
      {"measurement": "cell viability (ALAMAR blue)", "setting": "SH-SY5Y cells; 48 hours incubation", "value": "no effect"},
      {"measurement": "cell cycle state", "setting": "SH-SY5Y cells; O.N. incubation", "value": "no effect"}
    ]},
    {"compound": "COC(=O)C[C@H](NC(=O)[C@H](C)NC(=O)[C@@H](NC(=O)OCc1ccccc1)C(C)C)C(=O)CF", "note": "[Z-VAD-FMK, reference compound] (Cbz-Val-Ala-Asp(OMe)-CH2F)", "values": [
      {"measurement": "caspase-3 activity, specificity experiment", "setting": "caspase-3", "value": "inhibits activity of caspase-3 and caspase-6"},
      {"measurement": "caspase-6 activity, specificity experiment", "setting": "caspase-6; purified caspase-3/caspase-6 assay, FIGS. 1E-1F", "value": "inhibits activity of caspase-3 and caspase-6"}
    ]}
  ]
}
